The record followed here is PMC5218480 (PLoS ONE, 2017).

This assay deals with MV-4-11 cells. Kind of assay: Gene expression microarray analysis (Affymetrix PrimeView) and GSEA. Format: cell-based, human. The note with it: ProbeSet 11725217_a_at; LIST B. On the set-up: RFU PODN (11730768_x_at) / Fold change /veh PODN (11730768_x_at) / RFU LINC00158 (11744669_a_at) / Fold change /veh LINC00158 (11744669_a_at) / RFU DUSP10 (11751237_a_at) / Fold change /veh DUSP10 (11751237_a_at) / RFU ID3 (11757404_x_at) / Fold change /veh ID3 (11757404_x_at) / RFU PLEKHG5 (11737974_s_at) / Fold change /veh PLEKHG5 (11737974_s_at) / RFU LRRC4B (11730491_at) / Fold change /veh LRRC4B (11730491_at) / RFU GIMAP4 (11747438_a_at) / Fold change /veh GIMAP4 (11747438_a_at) / RFU KRT8 (11758183_x_at) / Fold change /veh KRT8 (11758183_x_at) / RFU CNN1 (11734310_a_at) / Fold change /veh CNN1 (11734310_a_at) / RFU VPS37D (11726825_at) / Fold change /veh VPS37D (11726825_at) / RFU C10orf10 (11716522_x_at) / Fold change /veh C10orf10 (11716522_x_at) / RFU KIR2DL2 /// KIR2DL4 /// KIR2DL5A /// KIR2DL5B /// KIR2DS1 /// KIR2DS2 /// KIR2DS3 /// KIR2DS4 /// KIR3DL3 /// KIR3DL3 /// KIR3DS1 (11738374_at) / Fold change /veh KIR2DL2 /// KIR2DL4 /// KIR2DL5A /// KIR2DL5B /// KIR2DS1 /// KIR2DS2 /// KIR2DS3 /// KIR2DS4 /// KIR3DL3 /// KIR3DL3 /// KIR3DS1 (11738374_at) / RFU C1QL1 (11718748_at) / Fold change /veh C1QL1 (11718748_at) / RFU TMPRSS4 (11747572_a_at) / Fold change /veh TMPRSS4 (11747572_a_at) / RFU HAMP (11756126_x_at) / Fold change /veh HAMP (11756126_x_at) / RFU RNFT2 (11725882_a_at) / Fold change /veh RNFT2 (11725882_a_at) / RFU NR4A2 (11747474_a_at) / Fold change /veh NR4A2 (11747474_a_at) / RFU ABCC12 (11746883_a_at) / Fold change /veh ABCC12 (11746883_a_at) / RFU TMEM136 (11760407_x_at) / Fold change /veh TMEM136 (11760407_x_at) / RFU CLDN22 /// WWC2 (11732394_at) / Fold change /veh CLDN22 /// WWC2 (11732394_at) / RFU HLA-DPB1 (11760878_x_at) / Fold change /veh HLA-DPB1 (11760878_x_at) / RFU SPINT1 (11716480_a_at) / Fold change /veh SPINT1 (11716480_a_at) / RFU GAP43 (11754022_s_at) / Fold change /veh GAP43 (11754022_s_at) / RFU A4GNT (11735810_at) / Fold change /veh A4GNT (11735810_at) / RFU PRB3 (11715151_x_at) / Fold change /veh PRB3 (11715151_x_at) / RFU TUBB4B (11761932_at) / Fold change /veh TUBB4B (11761932_at) / RFU CAPN14 (11732068_a_at) / Fold change /veh CAPN14 (11732068_a_at) / RFU TMCC2 (11721928_a_at) / Fold change /veh TMCC2 (11721928_a_at) / RFU IRGQ (11745062_a_at) / Fold change /veh IRGQ (11745062_a_at) / RFU FAM174B (11720279_a_at) / Fold change /veh FAM174B (11720279_a_at) / RFU TMPRSS4 (11748680_a_at) / Fold change /veh TMPRSS4 (11748680_a_at) / RFU FAM212B (11763350_a_at) / Fold change /veh FAM212B (11763350_a_at) / RFU PLEKHG5 (11743358_a_at) / Fold change /veh PLEKHG5 (11743358_a_at) / RFU ZSCAN30 (11745921_a_at) / Fold change /veh ZSCAN30 (11745921_a_at) / RFU CMKLR1 (11741424_a_at) / Fold change /veh CMKLR1 (11741424_a_at) / RFU LOC101060620 /// MAPK8IP1 (11723275_at) / Fold change /veh LOC101060620 /// MAPK8IP1 (11723275_at) / RFU SPTSSB (11747773_x_at) / Fold change /veh SPTSSB (11747773_x_at) / RFU PRSS12 (11739890_at) / Fold change /veh PRSS12 (11739890_at) / RFU BIN1 (11741810_x_at) / Fold change /veh BIN1 (11741810_x_at) / RFU WNT11 (11732464_a_at) / Fold change /veh WNT11 (11732464_a_at) / RFU C10orf10 (11716521_a_at) / Fold change /veh C10orf10 (11716521_a_at) / RFU C5orf56 (11738089_at) / Fold change /veh C5orf56 (11738089_at) / RFU CYB561 (11721691_x_at) / Fold change /veh CYB561 (11721691_x_at) / RFU ANKRD19P (11752326_a_at) / Fold change /veh ANKRD19P (11752326_a_at) / RFU OR2T12 /// OR2T33 /// OR2T8 (11738714_s_at) / Fold change /veh OR2T12 /// OR2T33 /// OR2T8 (11738714_s_at) / RFU VCAN (11748164_a_at) / Fold change /veh VCAN (11748164_a_at) / RFU JSRP1 (11732532_at) / Fold change /veh JSRP1 (11732532_at) / RFU KRTAP10-11 (11738290_x_at) / Fold change /veh KRTAP10-11 (11738290_x_at) / RFU MYO3A (11730013_a_at) / Fold change /veh MYO3A (11730013_a_at) / RFU EBF3 (11725865_a_at) / Fold change /veh EBF3 (11725865_a_at) / RFU CAMK2N1 (11719241_x_at) / Fold change /veh CAMK2N1 (11719241_x_at) / RFU C5orf56 (11738088_a_at) / Fold change /veh C5orf56 (11738088_a_at) / RFU OLFML3 (11715873_a_at) / Fold change /veh OLFML3 (11715873_a_at) / RFU LOC100653217 /// NTM (11731650_a_at) / Fold change /veh LOC100653217 /// NTM (11731650_a_at) / RFU MAPK11 (11762145_a_at) / Fold change /veh MAPK11 (11762145_a_at) / RFU FIZ1 (11724087_x_at) / Fold change /veh FIZ1 (11724087_x_at) / RFU OASL (11726364_x_at) / Fold change /veh OASL (11726364_x_at) / RFU SOX15 (11748057_x_at) / Fold change /veh SOX15 (11748057_x_at) / RFU CD79A (11719716_a_at) / Fold change /veh CD79A (11719716_a_at) / RFU HIST1H1D (11736915_at) / Fold change /veh HIST1H1D (11736915_at) / RFU CASKIN2 (11723855_a_at) / Fold change /veh CASKIN2 (11723855_a_at) / RFU LOC730098 (11760151_x_at) / Fold change /veh LOC730098 (11760151_x_at) / RFU OR4N2 (11742367_at) / Fold change /veh OR4N2 (11742367_at) / RFU PRRT2 (11749266_a_at) / Fold change /veh PRRT2 (11749266_a_at) / RFU SNX32 (11753110_a_at) / Fold change /veh SNX32 (11753110_a_at) / RFU CDHR5 (11726645_a_at) / Fold change /veh CDHR5 (11726645_a_at) / RFU RCAN1 (11760418_a_at) / Fold change /veh RCAN1 (11760418_a_at) / RFU FAM167A (11723789_a_at) / Fold change /veh FAM167A (11723789_a_at) / RFU FAM26E (11764081_at) / Fold change /veh FAM26E (11764081_at) / RFU ISYNA1 (11749810_s_at) / Fold change /veh ISYNA1 (11749810_s_at) / RFU ACY1 (11761880_at) / Fold change /veh ACY1 (11761880_at) / RFU 11764098_at / Fold change /veh 11764098_at / RFU SAMD14 (11745864_x_at) / Fold change /veh SAMD14 (11745864_x_at) / RFU NPB (11741838_a_at) / Fold change /veh NPB (11741838_a_at) / RFU TMPRSS6 (11731388_a_at) / Fold change /veh TMPRSS6 (11731388_a_at) / RFU KRTAP10-2 (11738614_at) / Fold change /veh KRTAP10-2 (11738614_at) / RFU ARHGAP8 /// PRR5-ARHGAP8 (11727945_x_at) / Fold change /veh ARHGAP8 /// PRR5-ARHGAP8 (11727945_x_at) / RFU KRTAP5-7 /// NADSYN1 (11734609_at) / Fold change /veh KRTAP5-7 /// NADSYN1 (11734609_at) / RFU RASL12 (11751679_a_at) / Fold change /veh RASL12 (11751679_a_at) / RFU CDKN2B (11736163_a_at) / Fold change /veh CDKN2B (11736163_a_at) / RFU PRF1 (11729649_at) / Fold change /veh PRF1 (11729649_at) / RFU, ZNF638 /// ZNF638-IT1 / Fold change vs veh, ZNF638 /// ZNF638-IT1 / RFU, PANK3 / Fold change vs veh, PANK3 / RFU, SH3YL1 / Fold change vs veh, SH3YL1 / RFU, ZEB2 / Fold change vs veh, ZEB2 / RFU, NRIP1 / Fold change vs veh, NRIP1 / RFU, PTTG1IP / Fold change vs veh, PTTG1IP / RFU, CAPN2 / Fold change vs veh, CAPN2 / RFU, MED14 / Fold change vs veh, MED14 / RFU, SNORA58 / Fold change vs veh, SNORA58 / RFU, C1orf63 / Fold change vs veh, C1orf63 / RFU, LRRFIP1 / Fold change vs veh, LRRFIP1 / RFU, NDUFAF7 / Fold change vs veh, NDUFAF7 / RFU, SLC12A2 / Fold change vs veh, SLC12A2 / RFU, IBTK / Fold change vs veh, IBTK / RFU, ESF1 / Fold change vs veh, ESF1 / Fold change vs veh, TMEM50B / RFU, TAOK1 / Fold change vs veh, TAOK1 / RFU, ACBD3 / Fold change vs veh, ACBD3 / RFU, TMA16 / Fold change vs veh, TMA16 / RFU, RWDD3 / Fold change vs veh, RWDD3 / RFU, BCAT1 / Fold change vs veh, BCAT1 / RFU, EDEM3 / Fold change vs veh, EDEM3 / RFU, TMEM33 / Fold change vs veh, TMEM33 / RFU, WDR75 / Fold change vs veh, WDR75 / RFU, AHCTF1 / Fold change vs veh, AHCTF1 / RFU, TFRC / Fold change vs veh, TFRC / RFU, ZDHHC17 / Fold change vs veh, ZDHHC17 / RFU, NOM1 / Fold change vs veh, NOM1 / RFU, ARL8B / Fold change vs veh, ARL8B / RFU, ZBTB11 / Fold change vs veh, ZBTB11 / RFU, TAMM41 / Fold change vs veh, TAMM41 / RFU, KIAA1704 /// LOC100996395 / Fold change vs veh, KIAA1704 /// LOC100996395 / RFU, ING1 / Fold change vs veh, ING1 / RFU, TRMT61B / Fold change vs veh, TRMT61B / RFU, FUBP3 / Fold change vs veh, FUBP3 / RFU, TP53 / Fold change vs veh, TP53 / RFU, TNKS2 / Fold change vs veh, TNKS2 / RFU, ZFP14 / Fold change vs veh, ZFP14 / RFU, ACTR2 / Fold change vs veh, ACTR2 / RFU, PPP3R1 / Fold change vs veh, PPP3R1 / RFU, PIK3R1 / Fold change vs veh, PIK3R1 / RFU, HNRNPA1 / Fold change vs veh, HNRNPA1 / RFU, RNF170 / Fold change vs veh, RNF170 / RFU, ZNF28 / Fold change vs veh, ZNF28 / RFU, RNGTT / Fold change vs veh, RNGTT / RFU, OGT / Fold change vs veh, OGT / RFU, BRD1 / Fold change vs veh, BRD1 / RFU, MARS / Fold change vs veh, MARS / RFU, ZNF655 / Fold change vs veh, ZNF655 / RFU, FAHD1 / Fold change vs veh, FAHD1 / RFU, BDP1 / Fold change vs veh, BDP1 / RFU, LRRCC1 / Fold change vs veh, LRRCC1 / RFU, ARID1A / Fold change vs veh, ARID1A / RFU, ZNF146 / Fold change vs veh, ZNF146 / RFU, ZNF330 / Fold change vs veh, ZNF330 / RFU, GPN3 / Fold change vs veh, GPN3 / RFU, C9orf123 / Fold change vs veh, C9orf123 / RFU, N4BP2L2 / Fold change vs veh, N4BP2L2 / RFU, ARFIP1 / Fold change vs veh, ARFIP1 / RFU, FAM179B / Fold change vs veh, FAM179B / RFU, BCL10 / Fold change vs veh, BCL10 / RFU, UHRF1BP1L / Fold change vs veh, UHRF1BP1L / RFU, BET1 / Fold change vs veh, BET1 / RFU, CNOT2 / Fold change vs veh, CNOT2 / RFU, ZNF268 / Fold change vs veh, ZNF268 / Fold change vs veh, ZNF507 / RFU, DGCR2 / Fold change vs veh, DGCR2 / RFU, WDSUB1 / Fold change vs veh, WDSUB1 / Fold change vs veh, HSP90B1 /// MIR3652 / RFU, ADSS / Fold change vs veh, ADSS / RFU, GK / Fold change vs veh, GK / RFU, ZNF148 / Fold change vs veh, ZNF148 / RFU, TAF9 / Fold change vs veh, TAF9 / RFU, SLC1A5 / Fold change vs veh, SLC1A5 / RFU, SLMO2 / Fold change vs veh, SLMO2 / RFU, ABCC4 / Fold change vs veh, ABCC4 / RFU, LOC101060439 /// RAP1B / Fold change vs veh, LOC101060439 /// RAP1B / RFU, RFX7 / Fold change vs veh, RFX7 / RFU, GTPBP10 / Fold change vs veh, GTPBP10 / RFU, CNEP1R1 / Fold change vs veh, CNEP1R1 / RFU, BIVM-ERCC5 /// ERCC5 / Fold change vs veh, BIVM-ERCC5 /// ERCC5 / RFU, ILF3 / Fold change vs veh, ILF3 / RFU 11762660_at / Fold change /veh 11762660_at / RFU VCAN (11757783_s_at) / Fold change /veh VCAN (11757783_s_at) / RFU DDX43 (11728927_at) / Fold change /veh DDX43 (11728927_at) / RFU KRT8 (11758188_x_at) / Fold change /veh KRT8 (11758188_x_at) / RFU NKD1 (11759106_at) / Fold change /veh NKD1 (11759106_at) / RFU SRD5A1 (11742802_a_at) / Fold change /veh SRD5A1 (11742802_a_at) / RFU TPSAB1 /// TPSB2 (11721975_s_at) / Fold change /veh TPSAB1 /// TPSB2 (11721975_s_at) / RFU GSTM3 (11746129_a_at) / Fold change /veh GSTM3 (11746129_a_at) / RFU IL23R (11737362_x_at) / Fold change /veh IL23R (11737362_x_at) / RFU TMEM51 (11727254_a_at) / Fold change /veh TMEM51 (11727254_a_at) / RFU PIWIL2 (11732686_x_at) / Fold change /veh PIWIL2 (11732686_x_at) / RFU ORM1 (11744905_x_at) / Fold change /veh ORM1 (11744905_x_at) / RFU CCDC152 (11743942_at) / Fold change /veh CCDC152 (11743942_at) / RFU ECM1 (11717891_a_at) / Fold change /veh ECM1 (11717891_a_at) / RFU IL23R (11748794_a_at) / Fold change /veh IL23R (11748794_a_at) / RFU TNFAIP8L3 (11732012_x_at) / Fold change /veh TNFAIP8L3 (11732012_x_at) / RFU MBOAT4 (11741988_at) / Fold change /veh MBOAT4 (11741988_at) / RFU 11764193_at / Fold change /veh 11764193_at / RFU TMEM53 (11763286_at) / Fold change /veh TMEM53 (11763286_at) / RFU MAGEB2 (11727129_at) / Fold change /veh MAGEB2 (11727129_at) / RFU TMEM200A (11744735_a_at) / Fold change /veh TMEM200A (11744735_a_at) / RFU CCDC152 (11751479_a_at) / Fold change /veh CCDC152 (11751479_a_at) / RFU FAM211A (11726209_a_at) / Fold change /veh FAM211A (11726209_a_at) / RFU RGS16 (11746705_a_at) / Fold change /veh RGS16 (11746705_a_at) / RFU VCAN (11755009_s_at) / Fold change /veh VCAN (11755009_s_at) / RFU RHOB (11743442_s_at) / Fold change /veh RHOB (11743442_s_at) / RFU RGS16 (11720943_a_at) / Fold change /veh RGS16 (11720943_a_at) / RFU RGS16 (11720944_at) / Fold change /veh RGS16 (11720944_at) / RFU, VPS4B / Fold change vs veh, VPS4B / RFU, CREB1 / Fold change vs veh, CREB1 / RFU, DNAJC13 / Fold change vs veh, DNAJC13 / RFU, GNAQ / Fold change vs veh, GNAQ / RFU, CDK5R1 / Fold change vs veh, CDK5R1 / RFU, ZRANB3 / Fold change vs veh, ZRANB3 / RFU, CUL4A / Fold change vs veh, CUL4A / RFU, CCNY / Fold change vs veh, CCNY / RFU, UFL1 / Fold change vs veh, UFL1 / RFU, COG3 / Fold change vs veh, COG3 / RFU, DIAPH2 / Fold change vs veh, DIAPH2 / RFU, SKA2 / Fold change vs veh, SKA2 / RFU, AFF3 / Fold change vs veh, AFF3 / RFU, LMF1 / Fold change vs veh, LMF1 / RFU, IPO11 / Fold change vs veh, IPO11 / RFU, DFFB / Fold change vs veh, DFFB / RFU, FOXP1 / Fold change vs veh, FOXP1 / RFU, CARD8 / Fold change vs veh, CARD8 / RFU, STRN3 / Fold change vs veh, STRN3 / RFU, ADK / Fold change vs veh, ADK / RFU, RASSF2 / Fold change vs veh, RASSF2 / RFU, WIPF1 / Fold change vs veh, WIPF1 / RFU, LARP1B / Fold change vs veh, LARP1B / RFU, RASA1 / Fold change vs veh, RASA1 / RFU, RB1 / Fold change vs veh, RB1 / RFU, PPFIA1 / Fold change vs veh, PPFIA1 / RFU, MAT2A / Fold change vs veh, MAT2A / RFU, CCT5 / Fold change vs veh, CCT5 / RFU, WDR92 / Fold change vs veh, WDR92 / RFU, CUX1 / Fold change vs veh, CUX1 / RFU, TTC7A / Fold change vs veh, TTC7A / RFU, TMEM135 / Fold change vs veh, TMEM135 / RFU, DEPTOR / Fold change vs veh, DEPTOR / RFU, CPM / Fold change vs veh, CPM / RFU, DNAJB6 / Fold change vs veh, DNAJB6 / RFU, CACNA2D3 / Fold change vs veh, CACNA2D3 / RFU, DTX4 / Fold change vs veh, DTX4 / RFU, TFCP2 / Fold change vs veh, TFCP2 / RFU, GMCL1 /// GMCL1P1 / Fold change vs veh, GMCL1 /// GMCL1P1 / RFU, AEBP2 / Fold change vs veh, AEBP2 / RFU, SNHG1 /// SNORD22 /// SNORD25 /// SNORD26 /// SNORD27 /// SNORD28 /// SNORD29 /// SNORD31 / Fold change vs veh, SNHG1 /// SNORD22 /// SNORD25 /// SNORD26 /// SNORD27 /// SNORD28 /// SNORD29 /// SNORD31 / Fold change (Aza/veh), C12orf56 (ProbeSet 11735607_a_at) / Fold change (ACY-1035/veh), C12orf56 (ProbeSet 11735607_a_at) / Fold change (Aza/veh), FGFR1OP (ProbeSet 11751329_s_at) / Fold change (ACY-1035/veh), FGFR1OP (ProbeSet 11751329_s_at) / Fold change (Aza/veh), VPS36 (ProbeSet 11739960_a_at) / Fold change (ACY-1035/veh), VPS36 (ProbeSet 11739960_a_at) / RFU SYPL1 (11715823_x_at) / Fold change /veh SYPL1 (11715823_x_at) / RFU IGFBP7 (11715501_s_at) / Fold change /veh IGFBP7 (11715501_s_at) / RFU REEP3 (11722064_at) / Fold change /veh REEP3 (11722064_at) / RFU IGLL1 (11728026_x_at) / Fold change /veh IGLL1 (11728026_x_at): dose or concentration left out as unconfirmed.

For `Nc1ccc(-c2cccs2)cc1NC(=O)c1ccc2c(c1)cc(C1CC1)n2CCN1CCOCC1` [ACY-1035], the “RFU, WDSUB1” value is on record as 59.59 RFU.
